From patent US20080085246A1, “Use of Eugenol Acetate as an Agent Against Bad Breath” (SYMRISE GMBH & CO. KG, priority 2004, published 2008)

Key:
[1] = tested on: liquid medium inoculated with fresh morning saliva; test: In vitro test for reduction of bad breath (inoculated medium smelled by a panel of testers)
[2] = tested on: Pseudomonas aeruginosa; test: Minimum inhibitory concentration, series dilution test; assay type: cell-based
Description: (§1) The minimum inhibitory concentration (MIC) of eugenol acetate was determined in the series dilution test against various bacteria.

[3] = tested on: Staphylococcus aureus; test: as above; assay type: cell-based
Description: as §1

[4] = tested on: Porphyromonas gingivalis; test: as above; assay type: cell-based
Description: as §1

[5] = tested on: Streptococcus mutans; test: as above; assay type: cell-based
Description: as §1

[6] = tested on: Fusobacterium nucleatum; test: as above; assay type: cell-based
Description: as §1

[7] = tested on: Prevotella intermedia; test: as above; assay type: cell-based
Description: as §1

[8] = tested on: Escherichia coli; test: as above; assay type: cell-based
Description: as §1

[9] = tested on: total number of germs in the oral saliva samples; test: Total number of germs in oral saliva samples; assay type: cell-based; settings: 1,000 ppm

## C=CCc1ccc(OC(C)=O)c(OC)c1 [eugenol acetate, 4-allyl-2-methoxyphenyl acetate]
[1]; 0.01% added to inoculated samples, 37 °C for some days
  smell after the incubation time: no smell
[1]; 0.05% added to the inoculated medium only one hour before the sensory evaluation
  smell at sensory evaluation: unpleasant mixed smell of bad breath and a weak eugenol acetate note
[1]; inoculated samples, no smell after incubation
  minimum active concentration: 0.01%
[1]; significantly lower concentrations than 0.01%
  smell after the incubation time: a changed intrinsic smell or a mixed smell was perceptible in some cases
[2]
  MIC: > 1000 µg/mL
  Type: no action up to 1,000 ppm
[3]
  MIC: > 1000 µg/mL
  Type: no action up to 1,000 ppm
[4]
  MIC: 1000 µg/mL
[5]
  MIC: > 1000 µg/mL
  Type: no action up to 1,000 ppm
[6]
  MIC: 500 µg/mL
[6]; 500 ppm
  Type: bactericidal action
[7]
  MIC: 500 µg/mL
[7]; 500 ppm
  Type: bactericidal action
[8]
  MIC: > 1000 µg/mL
  Type: no action up to 1,000 ppm
[9]
  reduction in respect of the total number of germs: no significant reduction
